# Results published in ChEMBL document CHEMBL5584297, “Cytotoxic Peptaibols from Trichoderma strigosum” (J Nat Prod, 2024).
# The source made the active and inactive calls. The rule behind the calls is not given here. Square brackets hold non-standard residues; d marks the D form. Peptide text beside a SMILES is read from it. * marks the point of attachment. Leu(ol) = CC(C)C[C@H](N)CO; dIva = CC[C@@](C)(N)C(=O)O; Octanoyl = CCCCCCCC(=O)*; Aib = CC(C)(N)C(=O)O
# What was measured:
# SK-OV-3 = assay: Antiproliferative activity against human SK-OV-3 cells assessed as reduction in cell viability incubated for 24 hrs by MTT assay; type: functional, cell-based; settings: SK-OV-3, 24 h
# SNU-449 = assay: Antiproliferative activity against human SNU-449 cells assessed as reduction in cell viability incubated for 24 hrs by MTT assay; type: functional, cell-based; settings: SNU-449, 24 h
# MDA-MB-231 = assay: Antiproliferative activity against human MDA-MB-231 cells assessed as reduction in cell viability incubated for 24 hrs by MTT assay; type: functional, cell-based; settings: MDA-MB-231, 24 h
# Fusarium oxysporum = assay: Antifungal activity against Fusarium oxysporum KCTC 16654; type: functional, organism-based
# DU-145 = assay: Antiproliferative activity against human DU-145 cells assessed as reduction in cell viability incubated for 24 hrs by MTT assay; type: functional, cell-based; settings: DU-145, 24 h
# HCT-116 = assay: Antiproliferative activity against human HCT-116 cells assessed as reduction in cell viability incubated for 24 hrs by MTT assay; type: functional, cell-based; settings: HCT-116, 24 h
# Candida albicans = assay: Antifungal activity against Candida albicans; type: functional, organism-based
# [Candida] auris = Antifungal activity against Candida auris; type: functional, organism-based; settings: Candidozyma auris
Compound,IC50 (SK-OV-3),IC50 (SNU-449),IC50 (MDA-MB-231),IC50 (DU-145),IC50 (HCT-116),Activity (Fusarium oxysporum),Activity (Candida albicans),Activity ([Candida] auris)
CCCCCCCC(=O)NCC(=O)N[C@@H](C)C(=O)N[C@H](C(=O)N[C@](C)(CC)C(=O)N[C@@H](C)C(=O)N[C@@H](CC(C)C)C(=O)N[C@H](CO)CC(C)C)C(C)C,47 µM,39 µM,11.5 µM,15.1 µM,8.9 µM,inactive,inactive,inactive
CCCCCCCC(=O)NCC(=O)N[C@@H](C)C(=O)N[C@@H](CC(C)C)C(=O)N[C@](C)(CC)C(=O)N[C@@H](C)C(=O)N[C@@H](CC(C)C)C(=O)N[C@H](CO)CC(C)C,50.3 µM,222 µM,18.5 µM,18.2 µM,37.9 µM,inactive,inactive,inactive
CC[C@H](C)[C@H](NC(=O)C(C)(C)NC(=O)C(C)(C)NC(=O)[C@H](C)NC(=O)C(C)(C)NC(C)=O)C(=O)N[C@@H](CCC(N)=O)C(=O)NC(C)(C)C(=O)NC(C)(C)C(=O)NC(C)(C)C(=O)N[C@@H](CO)C(=O)N[C@H](C(=O)NC(C)(C)C(=O)N1CCC[C@H]1C(=O)N[C@H](C(=O)NC(C)(C)C(=O)NC(C)(C)C(=O)N[C@@H](CCC(N)=O)C(=O)N[C@@H](CCC(N)=O)C(=O)N[C@H](CO)CC(C)C)C(C)C)C(C)C (Ac-[Aib]A[Aib][Aib]IQ[Aib][Aib][Aib]SV[Aib]PV[Aib][Aib]QQ[Leu(ol)]),26.7 µM,> 150 µM,8.7 µM,12.2 µM,9 µM,inactive,inactive,inactive
CC(=O)NC(C)(C)C(=O)N[C@@H](C)C(=O)NC(C)(C)C(=O)NC(C)(C)C(=O)N[C@@H](CC(C)C)C(=O)N[C@@H](CCC(N)=O)C(=O)NC(C)(C)C(=O)NC(C)(C)C(=O)NC(C)(C)C(=O)N[C@@H](CO)C(=O)N[C@H](C(=O)NC(C)(C)C(=O)N1CCC[C@H]1C(=O)N[C@H](C(=O)NC(C)(C)C(=O)NC(C)(C)C(=O)N[C@@H](CCC(N)=O)C(=O)N[C@@H](CCC(N)=O)C(=O)N[C@H](CO)CC(C)C)C(C)C)C(C)C (Ac-[Aib]A[Aib][Aib]LQ[Aib][Aib][Aib]SV[Aib]PV[Aib][Aib]QQ[Leu(ol)]),11.9 µM,30.8 µM,7.2 µM,12 µM,8.7 µM,inactive,inactive,inactive
CC[C@H](C)[C@H](NC(=O)C(C)(C)NC(=O)C(C)(C)NC(=O)[C@H](CO)NC(=O)C(C)(C)NC(C)=O)C(=O)N[C@@H](CCC(N)=O)C(=O)NC(C)(C)C(=O)NC(C)(C)C(=O)NC(C)(C)C(=O)N[C@@H](CO)C(=O)N[C@@H](CC(C)C)C(=O)NC(C)(C)C(=O)N1CCC[C@H]1C(=O)N[C@H](C(=O)NC(C)(C)C(=O)NC(C)(C)C(=O)N[C@@H](CCC(N)=O)C(=O)N[C@@H](CCC(N)=O)C(=O)N[C@H](CO)CC(C)C)C(C)C (Ac-[Aib]S[Aib][Aib]IQ[Aib][Aib][Aib]SL[Aib]PV[Aib][Aib]QQ[Leu(ol)]),2.4 µM,11.3 µM,1 µM,2 µM,4.3 µM,inactive,inactive,inactive
CC(=O)NC(C)(C)C(=O)N[C@@H](CO)C(=O)NC(C)(C)C(=O)NC(C)(C)C(=O)N[C@@H](CC(C)C)C(=O)N[C@@H](CCC(N)=O)C(=O)NC(C)(C)C(=O)NC(C)(C)C(=O)NC(C)(C)C(=O)N[C@@H](CO)C(=O)N[C@@H](CC(C)C)C(=O)NC(C)(C)C(=O)N1CCC[C@H]1C(=O)N[C@H](C(=O)NC(C)(C)C(=O)NC(C)(C)C(=O)N[C@@H](CCC(N)=O)C(=O)N[C@@H](CCC(N)=O)C(=O)N[C@H](CO)CC(C)C)C(C)C (Ac-[Aib]S[Aib][Aib]LQ[Aib][Aib][Aib]SL[Aib]PV[Aib][Aib]QQ[Leu(ol)]),12.4 µM,13 µM,2.5 µM,3.3 µM,4.4 µM,inactive,inactive,inactive
CC(=O)NC(C)(C)C(=O)N[C@@H](CO)C(=O)NC(C)(C)C(=O)NC(C)(C)C(=O)N[C@@H](CC(C)C)C(=O)N[C@@H](CCC(N)=O)C(=O)NC(C)(C)C(=O)NC(C)(C)C(=O)NC(C)(C)C(=O)N[C@@H](CO)C(=O)N[C@H](C(=O)NC(C)(C)C(=O)N1CCC[C@H]1C(=O)N[C@H](C(=O)NC(C)(C)C(=O)NC(C)(C)C(=O)N[C@@H](CCC(N)=O)C(=O)N[C@@H](CCC(N)=O)C(=O)N[C@H](CO)CC(C)C)C(C)C)C(C)C (Ac-[Aib]S[Aib][Aib]LQ[Aib][Aib][Aib]SV[Aib]PV[Aib][Aib]QQ[Leu(ol)]),41.1 µM,131 µM,80.2 µM,30.9 µM,32.8 µM,inactive,inactive,inactive
CCCCCCCC(=O)NCC(=O)N[C@@H](C)C(=O)N[C@@H](CC(C)C)C(=O)NC(C)(C)C(=O)N[C@@H](C)C(=O)N[C@H](C(=O)N[C@H](CO)CC(C)C)[C@@H](C)CC (Octanoyl-GAL[Aib]AI[Leu(ol)]),18.7 µM,> 150 µM,17.6 µM,25.4 µM,27.4 µM,inactive,inactive,inactive

# More lines, in order of falling IC50 (SK-OV-3), values ahead:
IC50 (SK-OV-3),IC50 (SNU-449),IC50 (MDA-MB-231),IC50 (DU-145),IC50 (HCT-116),Compound,Activity (Fusarium oxysporum),Activity (Candida albicans),Activity ([Candida] auris)
88.4 µM,71.4 µM,,91.2 µM,73.6 µM,COc1cccc2c1C(=O)c1c(O)c3c(c(O)c1C2=O)C[C@@](O)(C(=O)CO)C[C@@H]3O[C@H]1C[C@H](N)[C@H](O)[C@H](C)O1 [DOXORUBICIN],inactive,inactive,inactive
60.7 µM,> 150 µM,25.7 µM,31.8 µM,> 150 µM,CCCCCCCC(=O)NCC(=O)N[C@@H](C)C(=O)N[C@H](C(=O)NC(C)(C)C(=O)N[C@@H](C)C(=O)N[C@@H](CC(C)C)C(=O)N[C@H](CO)CC(C)C)C(C)C (Octanoyl-GAV[Aib]AL[Leu(ol)]),inactive,inactive,inactive
12.5 µM,17.3 µM,7.3 µM,13 µM,12 µM,CCCCCCCC(=O)NCC(=O)N[C@@H](C)C(=O)N[C@@H](CC(C)C)C(=O)NC(C)(C)C(=O)N[C@@H](C)C(=O)N[C@@H](CC(C)C)C(=O)N[C@H](CO)CC(C)C (Octanoyl-GAL[Aib]AL[Leu(ol)]),inactive,inactive,inactive
6.3 µM,8.8 µM,4.5 µM,4.5 µM,8 µM,CCCCCCCC(=O)NCC(=O)N[C@@H](C)C(=O)N[C@@H](CC(C)C)C(=O)N[C@](C)(CC)C(=O)N[C@@H](C)C(=O)N[C@H](C(=O)N[C@H](CO)CC(C)C)[C@@H](C)CC (Octanoyl-GAL[dIva]AI[Leu(ol)]),inactive,inactive,inactive
4.1 µM,10.4 µM,2.3 µM,4.4 µM,3.7 µM,CC(=O)NC(C)(C)C(=O)N[C@@H](C)C(=O)NC(C)(C)C(=O)NC(C)(C)C(=O)N[C@@H](CC(C)C)C(=O)N[C@@H](CCC(N)=O)C(=O)NC(C)(C)C(=O)NC(C)(C)C(=O)NC(C)(C)C(=O)N[C@@H](CO)C(=O)N[C@@H](CC(C)C)C(=O)NC(C)(C)C(=O)N1CCC[C@H]1C(=O)N[C@H](C(=O)NC(C)(C)C(=O)NC(C)(C)C(=O)N[C@@H](CCC(N)=O)C(=O)N[C@@H](CCC(N)=O)C(=O)N[C@H](CO)CC(C)C)C(C)C (Ac-[Aib]A[Aib][Aib]LQ[Aib][Aib][Aib]SL[Aib]PV[Aib][Aib]QQ[Leu(ol)]),inactive,inactive,inactive
3.8 µM,5.7 µM,2.3 µM,2.1 µM,3.2 µM,CC[C@H](C)[C@H](NC(=O)C(C)(C)NC(=O)C(C)(C)NC(=O)[C@H](C)NC(=O)C(C)(C)NC(C)=O)C(=O)N[C@@H](CCC(N)=O)C(=O)NC(C)(C)C(=O)NC(C)(C)C(=O)NC(C)(C)C(=O)N[C@@H](CO)C(=O)N[C@@H](CC(C)C)C(=O)NC(C)(C)C(=O)N1CCC[C@H]1C(=O)N[C@H](C(=O)NC(C)(C)C(=O)NC(C)(C)C(=O)N[C@@H](CCC(N)=O)C(=O)N[C@@H](CCC(N)=O)C(=O)N[C@H](CO)CC(C)C)C(C)C (Ac-[Aib]A[Aib][Aib]IQ[Aib][Aib][Aib]SL[Aib]PV[Aib][Aib]QQ[Leu(ol)]),inactive,inactive,inactive
